# In PubChem BioAssay (NCI):
#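 Five compound concentrations were applied to cells in 96-well plates for 48 hours; endpoints were derived by simple linear interpolation of the resulting dose-response curve. TGI is the concentration that stops growth completely.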
# Columns and labels:
# Assay in all cases: DTP human tumour cell line panel, 48 h
# 786-0 renal = test system: 786-0 renal
# A498 renal = test system: A498 renal
# A549 NSCLC = test system: A549 NSCLC
# ACHN renal = test system: ACHN renal
# BT-549 breast = test system: BT-549 breast
# CAKI-1 renal = test system: CAKI-1 renal
# CCRF-CEM leukemia = test system: CCRF-CEM leukemia
# COLO 205 colon = test system: COLO 205 colon
# DU-145 prostate = test system: DU-145 prostate
# EKVX NSCLC = test system: EKVX NSCLC
# HCT-116 colon = test system: HCT-116 colon
# HCT-15 colon = test system: HCT-15 colon
# HOP-62 NSCLC = test system: HOP-62 NSCLC
# HS 578T breast = test system: HS 578T breast
# HT29 colon = test system: HT29 colon
# IGROV1 ovarian = test system: IGROV1 ovarian
# K-562 leukemia = test system: K-562 leukemia
# KM12 colon = test system: KM12 colon
# LOX IMVI melanoma = test system: LOX IMVI melanoma
# M14 melanoma = test system: M14 melanoma
# MALME-3M melanoma = test system: MALME-3M melanoma
# MCF7 breast = test system: MCF7 breast
# MDA-MB-231 breast = test system: MDA-MB-231 breast
# MDA-MB-435 = test system: MDA-MB-435
# MDA-N = test system: MDA-N
# MOLT-4 leukemia = test system: MOLT-4 leukemia
# NCI-H226 lung = test system: NCI-H226 lung
# NCI-H23 lung = test system: NCI-H23 lung
# NCI-H460 lung = test system: NCI-H460 lung
# NCI-H522 lung = test system: NCI-H522 lung
# NCI/ADR-RES ovarian = test system: NCI/ADR-RES ovarian
# OVCAR-3 ovarian = test system: OVCAR-3 ovarian
# OVCAR-4 ovarian = test system: OVCAR-4 ovarian
# OVCAR-5 ovarian = test system: OVCAR-5 ovarian
# OVCAR-8 ovarian = test system: OVCAR-8 ovarian
# PC-3 prostate = test system: PC-3 prostate
# RPMI-8226 leukemia = test system: RPMI-8226 leukemia
# RXF 393 renal = test system: RXF 393 renal
# SF-268 CNS = test system: SF-268 CNS
# SF-539 CNS = test system: SF-539 CNS
# SK-MEL-2 melanoma = test system: SK-MEL-2 melanoma
# SK-MEL-28 melanoma = test system: SK-MEL-28 melanoma
# SK-MEL-5 melanoma = test system: SK-MEL-5 melanoma
# SK-OV-3 ovarian = test system: SK-OV-3 ovarian
# SN12C renal = test system: SN12C renal
# SNB-19 CNS = test system: SNB-19 CNS
# SNB-75 CNS = test system: SNB-75 CNS
# SW-620 colon = test system: SW-620 colon
# T-47D breast = test system: T-47D breast
# TK-10 renal = test system: TK-10 renal
# U251 CNS = test system: U251 CNS
# UACC-257 melanoma = test system: UACC-257 melanoma
# UACC-62 melanoma = test system: UACC-62 melanoma
# UO-31 renal = test system: UO-31 renal
# HCC-2998 colon = test system: HCC-2998 colon
# HOP-92 NSCLC = test system: HOP-92 NSCLC
# SF-295 CNS = test system: SF-295 CNS
smiles,measurement,setting,value
COC(=O)C(NC(=O)C(CC(=O)OC(C)(C)C)NC(=O)OC(C)(C)C)C(O)c1ccccc1 (configuration not stated),TGI,786-0 renal,> 100 µM
same,TGI,A498 renal,> 100 µM
same,TGI,A549 NSCLC,> 100 µM
same,TGI,ACHN renal,> 100 µM
same,TGI,BT-549 breast,> 100 µM
same,TGI,CAKI-1 renal,> 100 µM
same,TGI,CCRF-CEM leukemia,> 100 µM
same,TGI,COLO 205 colon,> 100 µM
same,TGI,DU-145 prostate,> 100 µM
same,TGI,EKVX NSCLC,> 100 µM
same,TGI,HCT-116 colon,> 100 µM
same,TGI,HCT-15 colon,> 100 µM
same,TGI,HOP-62 NSCLC,> 100 µM
same,TGI,HS 578T breast,> 100 µM
same,TGI,HT29 colon,> 100 µM
same,TGI,IGROV1 ovarian,> 100 µM
same,TGI,K-562 leukemia,> 100 µM
same,TGI,KM12 colon,> 100 µM
same,TGI,LOX IMVI melanoma,> 100 µM
same,TGI,M14 melanoma,> 100 µM
same,TGI,MALME-3M melanoma,> 100 µM
same,TGI,MCF7 breast,> 100 µM
same,TGI,MDA-MB-231 breast,> 100 µM
same,TGI,MDA-MB-435,> 100 µM
same,TGI,MDA-N,> 100 µM
same,TGI,MOLT-4 leukemia,> 100 µM
same,TGI,NCI-H226 lung,> 100 µM
same,TGI,NCI-H23 lung,> 100 µM
same,TGI,NCI-H460 lung,> 100 µM
same,TGI,NCI-H522 lung,> 100 µM
same,TGI,NCI/ADR-RES ovarian,> 100 µM
same,TGI,OVCAR-3 ovarian,> 100 µM
same,TGI,OVCAR-4 ovarian,> 100 µM
same,TGI,OVCAR-5 ovarian,> 100 µM
same,TGI,OVCAR-8 ovarian,> 100 µM
same,TGI,PC-3 prostate,> 100 µM
same,TGI,RPMI-8226 leukemia,> 100 µM
same,TGI,RXF 393 renal,> 100 µM
same,TGI,SF-268 CNS,> 100 µM
same,TGI,SF-539 CNS,> 100 µM
same,TGI,SK-MEL-2 melanoma,> 100 µM
same,TGI,SK-MEL-28 melanoma,> 100 µM
same,TGI,SK-MEL-5 melanoma,> 100 µM
same,TGI,SK-OV-3 ovarian,61.9 µM
same,TGI,SN12C renal,> 100 µM
same,TGI,SNB-19 CNS,> 100 µM
same,TGI,SNB-75 CNS,> 100 µM
same,TGI,SW-620 colon,> 100 µM
same,TGI,T-47D breast,> 100 µM
same,TGI,TK-10 renal,> 100 µM
same,TGI,U251 CNS,> 100 µM
same,TGI,UACC-257 melanoma,> 100 µM
same,TGI,UACC-62 melanoma,70.8 µM
same,TGI,UO-31 renal,> 100 µM
CCCNC(=S)/N=C/c1c(O)cc(C)oc1=O,TGI,786-0 renal,> 100 µM
same,TGI,A549 NSCLC,> 100 µM
same,TGI,ACHN renal,> 100 µM
same,TGI,BT-549 breast,> 100 µM
same,TGI,CAKI-1 renal,> 100 µM
same,TGI,COLO 205 colon,> 100 µM
same,TGI,DU-145 prostate,> 100 µM
same,TGI,EKVX NSCLC,> 100 µM
same,TGI,HCC-2998 colon,> 100 µM
same,TGI,HCT-116 colon,> 100 µM
same,TGI,HCT-15 colon,> 100 µM
same,TGI,HOP-62 NSCLC,> 100 µM
same,TGI,HOP-92 NSCLC,> 100 µM
same,TGI,HT29 colon,> 100 µM
same,TGI,IGROV1 ovarian,> 100 µM
same,TGI,KM12 colon,> 100 µM
same,TGI,LOX IMVI melanoma,> 100 µM
same,TGI,M14 melanoma,> 100 µM
same,TGI,MCF7 breast,> 100 µM
same,TGI,MDA-MB-231 breast,> 100 µM
same,TGI,MDA-MB-435,> 100 µM
same,TGI,MDA-N,> 100 µM
same,TGI,MOLT-4 leukemia,> 100 µM
same,TGI,NCI-H226 lung,> 100 µM
same,TGI,NCI-H23 lung,> 100 µM
same,TGI,NCI-H460 lung,> 100 µM
same,TGI,NCI/ADR-RES ovarian,> 100 µM
same,TGI,OVCAR-3 ovarian,> 100 µM
same,TGI,OVCAR-4 ovarian,> 100 µM
same,TGI,OVCAR-5 ovarian,> 100 µM
same,TGI,OVCAR-8 ovarian,> 100 µM
same,TGI,PC-3 prostate,> 100 µM
same,TGI,SF-295 CNS,> 100 µM
same,TGI,SF-539 CNS,> 100 µM
same,TGI,SK-MEL-2 melanoma,> 100 µM
same,TGI,SK-MEL-28 melanoma,> 100 µM
same,TGI,SK-MEL-5 melanoma,> 100 µM
same,TGI,SK-OV-3 ovarian,> 100 µM
same,TGI,SN12C renal,> 100 µM
same,TGI,SNB-19 CNS,> 100 µM
same,TGI,SNB-75 CNS,> 100 µM
same,TGI,SW-620 colon,> 100 µM
same,TGI,T-47D breast,> 100 µM
same,TGI,TK-10 renal,> 100 µM
same,TGI,U251 CNS,> 100 µM
same,TGI,UACC-257 melanoma,> 100 µM
same,TGI,UACC-62 melanoma,> 100 µM
same,TGI,UO-31 renal,> 100 µM
